≈ marks a conversion by molar mass, not a printed value. Counter-ions that a name gives are not always drawn. Like-named read-outs stand apart in the source and are kept apart here. A value given as a limit tells only on which side of the number the result lay.

The subject of data set [1] is M. tuberculosis H37Rv. Nature of the data set: Hypoxic (anaerobic) clonogenic MBC assay, dormant H37Rv. The class given is cell-based. The following applies: for MBC: Mycobacterium tuberculosis.
Data set [2] has as its system Mycobacterium tuberculosis H37Rv. Put plainly: Microplate Alamar Blue Assay (MABA), aerobic. The class given is cell-based. A general note: Resazurin is reduced to fluorescent resorufin, in cell work by metabolically active cells.
Data set [3] has the same test system. The conditions noted are these: MABA, 7H12 media, 90% reduction in fluorescence; cited from earlier work.
For data set [4], the system named is M. tuberculosis H37Rv. The following applies: hypoxic MBC assay; cited from earlier work.
Data set [5] in a line: Toxicity study in rats. The conditions noted are these: i.v. daily 16 mg/kg, female rats. The class given is in vivo.
A short description of data set [6]: Toxicity study in dogs. In kind it is in vivo. The following applies: i.v. daily 10.95 mg/kg.
A short description of data set [7]: Plasma concentration after administration to CD2F1 mice. The class given is in vivo. From the text:
(§1) An oral MTD was not determined.

Data set [8] is described as follows: Toxicity (MTD, adverse effects) in mice. The class given is in vivo.
From the text: determination of MTD ([…], MTD) in vivo (C57BL/6 female mice, i.p. administration of single doses, 1 week duration); and
as §1

Data set [9] relates to VERO cells. Nature of the data set: Cytotoxicity against VERO cells (MTT, 72 hours exposure). The class given is cell-based. The conditions noted are these: for IC50: Chlorocebus sabaeus, Vero, read-out: IC50 in VERO cells.
Data set [10] is described as follows: Water solubility and stability of aqueous stock solutions. The conditions noted are these: for solubility in water: hydrochloride salt. In kind it is physicochemical. The procedure:
Commercially available 4,7-dichloroquinoline (1) first was converted to the 4-fluoro-derivative (2) by refluxing for 6 hours in DMSO with lyophilized potassium fluoride (KF) (1.5 eq) from a 5% aqueous solution.
HRMS (VG 70-250SE mass spectrometer): Calculated for C16H16ClN5O2 (free amine): m/z 345.0992. […] FAB (VG 70-250SE mass spectrometer). Calculated for C16H17ClN5O2 (M+): m/z 346.

A short description of data set [11]: Stability in human plasma. In kind it is in vitro ADME.
The conditions of data set [12]: in vivo, po, 600 mg; cited from earlier work.
The mark [13] stands for this setting: H37RV, pH 6.7, read-out: H37Rv MBC (hypoxic).
Where [14] appears, read: H37RV, present day anti-TB drugs as positive controls, read-out: H37Rv MBC (hypoxic assay).
The mark [15] stands for this setting: dormant H37Rv cells, ranges depending on the assay (Table 2), read-out: MBC (minimum bactericidal concentration).
Where [16] appears, read: dormant H37Rv cells, ranges depending on the assay (Table 2).
[17] abbreviates: present day anti-TB drugs as positive controls.
[18] abbreviates: H37RV, read-out: MBC (minimum bactericidal concentration).
[19] abbreviates: pH 6.7, read-out: % Inh (aerobic).

With `Cc1nc(C(F)(F)F)nc(NCCCn2ccnc2[N+](=O)[O-])c1C` [CF3PM], the MBC in [1] (setting [13]) is 7.01 to 25 µg/mL (≈ 20.4 to 72.6 µM). In addition, the inhibition at 6.25 µg/mL in [2] (aerobic conditions, 6.25 μg/mL, pH 6.7-6.8, read-out: % Inh (aerobic)) turned out to be 23%.

For `CC[C@H]1OC(=O)[C@H](C)[C@@H](O[C@H]2C[C@@](C)(OC)[C@@H](O)[C@H](C)O2)[C@H](C)[C@@H](O[C@@H]2O[C@H](C)C[C@H](N(C)C)[C@H]2O)[C@](C)(OC)C[C@@H](C)C(=O)[C@H](C)[C@@H](O)[C@]1(C)O` [Clarithromycin, clarithromycin], the MBC in data set [1] (setting [14]) and in data set [1] (setting [15]) was > 312 µg/mL in each case. Moreover, in data set [1] (setting [16]), the “MBC (minimum bactericidal concentration)” value was > 312.5 µg/mL.

As for `NNC(=O)c1ccncc1` [Isoniazid, isoniazid], the MBC in data set [1] (setting [14]) and in data set [1] (setting [15]) was > 100 µg/mL throughout. Besides, in data set [1] (setting [16]), the “MBC (minimum bactericidal concentration)” value is > 100 µg/mL. Also, the “expected MIC range (quality control)” value in data set [3] is 0.025 to 0.1 µg/mL.

On to `Cc1ncc([N+](=O)[O-])n1CCO` [Metronidazole, metronidazole], for which the “activity in hypoxic assay” value in data set [4] is “activity is observed only at very high concentrations”.

Regarding `CN(C)c1ccc(O)c2c1C[C@H]1C[C@H]3[C@H](N(C)C)C(O)=C(C(N)=O)C(=O)[C@@]3(O)C(O)=C1C2=O` [Minocyclin, minocyclin], the “MBC (minimum bactericidal concentration)” value in data set [1] (setting [16]) is >156.25 µg/mL; in data set [1] (dormant H37Rv cells, ranges depending on the assay (Table 2), listed as minocyclin), > 156.25 µg/mL. The “H37Rv MBC (hypoxic assay)” value in [1] (setting [17]) was determined as 156.25 µg/mL.

Regarding `O=[N+]([O-])c1nccn1CCCNc1ccnc2cc(Cl)ccc12` [NLCQ-1, 4-[3-(2-Nitro-1-imidazolyl)-propylamino]-7-chloroquinoline hydrochloride], the adverse effects entry is reported as “no adverse effects” in data set [5]; “no adverse effects” in [6]; “no adverse effects” in [8] (i.p. 30 mg/kg bolus or 45 mg/kg as 3 fractions of 15 mg/kg every two hours daily, mice). For the same compound, the MBC in data set [1] (setting [13]) was 3.1 µg/mL; in data set [1] (setting [18]), 3.1 to 18.4 µg/mL. For the same compound, in data set [2] (setting [19]), the inhibition at 6.25 µg/mL was determined as 0%. Besides, the peak plasma concentration in data set [7] (i.p. injection of 10 mg/kg) stood at 8.9 µg/mL; in data set [7] (oral administration of 10 mg/kg) it was 0.461 µg/mL. This compound also had a bioavailability in [7] (mouse, plasma, oral administration of 10 mg/kg) of 29%. The same compound had an MTD at 1 week in [8] (female, C57BL/6, mouse, in vivo, ip, single dose) of 30 mg/kg. Further, in data set [8] (mouse, in vivo, ip, multiple doses), the MTD is ≥ 45 mg/kg. For the same compound, in data set [9], the half-maximal inhibitory concentration (IC50) was found to be 147 µg/mL. Also, in [10], the “hydrophilicity (aqueous solubility) compared with PA-824” value is given as “more hydrophilic”. The “solubility in water” value in data set [10] was “soluble in water”. In [11], the “stability in human plasma” value is “good stability in human plasma”.

On to `O=[N+]([O-])c1nccn1CCCCNc1ccnc2cc(Cl)ccc12` [NLCQ-2, 4-[4-(2-nitro-1-imidazolyl)-butylamino]-7-chloroquinoline hydrochloride], for which the MBC in data set [1] (setting [13]) turned out to be 6.25 µg/mL. The MBC in data set [1] (setting [18]) is 4.9 to 9.8 µg/mL. Further, the inhibition at 6.25 µg/mL in data set [2] (setting [19]) turned out to be 0%. For the same compound, the concentration for half-maximal inhibition (IC50) in data set [9] is > 640 µg/mL. The “IC50 in VERO cells” value in data set [9] (toxicity, hydrochloride) is >640 µg/mL. In data set [10], the “hydrophilicity (aqueous solubility) compared with PA-824” value is recorded as “more hydrophilic” and the “solubility in water” value is listed as “soluble in water”.

For `O=[N+]([O-])c1cn2c(n1)OC[C@@H](OCc1ccc(OC(F)(F)F)cc1)C2` [PA-824], the MBC in data set [1] (setting [18]) fell in the range of 6.4 to 12.8 µg/mL (≈ 17.8 to 35.6 µM). Also, in [9] (toxicity), the IC50 is > 640 µg/mL and the “IC50 in VERO cells” value is >640 µg/mL. For the same compound, the “SI, selectivity index (IC50/MBC)” value in data set [9] (VERO IC50 / MBC dormant H37Rv) is >50-100.

As for `CO[C@H]1/C=C/O[C@@]2(C)Oc3c(C)c(O)c4c(O)c(c(/C=N/N5CCN(C)CC5)c(O)c4c3C2=O)NC(=O)/C(C)=C\C=C\[C@H](C)[C@H](O)[C@@H](C)[C@@H](O)[C@@H](C)[C@H](OC(C)=O)[C@@H]1C` [Rifampin, rifampin], in [12], the Cmax was 8000 ng/mL. The MBC in data set [1] (setting [14]) and in data set [1] (setting [15]) was 2.5 µg/mL (≈ 3.04 µM) each time.

On to `[H]/N=C(/N)N[C@H]1[C@H](O)[C@@H](O)[C@H](O[C@@H]2O[C@@H](C)[C@](O)(C=O)[C@H]2O[C@@H]2O[C@@H](CO)[C@H](O)[C@@H](O)[C@@H]2NC)[C@@H](N/C(N)=N\[H])[C@@H]1O` [Streptomycin, streptomycin], for which the MBC was 12.5 µg/mL (≈ 21.5 µM) in data set [1] (setting [14]) and > 12.5 µg/mL in data set [1] (setting [15]). The “MBC (minimum bactericidal concentration)” value in [1] (setting [16]) was > 12.5 µg/mL.

With capreomycin, the “MBC (minimum bactericidal concentration)” value in [1] (setting [16]) was determined as 37.5 µg/mL. In addition, the “H37Rv MBC (hypoxic assay)” value in data set [1] (setting [17]) was 37.5 µg/mL.

As a reminder, the bioavailability is the share of a dose that reaches the circulation, judged against a reference dose that is usually intravenous. The low end stands for poor availability, the high end for good availability. A word on the IC50: it is the concentration that gives 50% inhibition. A word on the Cmax: it is the peak of the concentration-time curve.
